Laboratory results as given in ChEMBL document CHEMBL1909294, “Translating clinical findings into knowledge in drug safety evaluation--drug induced liver injury prediction system (DILIps)” (PLoS Comput Biol, 2011).

Assays:
[1] = test system: Hepatotoxicity;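 on HepSE bilirubinemia: bilirubinemia hepatic side effect score drawn from the DILIps training data, a prediction system for drug-induced liver injury; call rule not given here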;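 on HepSE cholecystitis: Cholecystitis-related hepatic side effect score drawn from the DILIps (drug-induced liver injury prediction) training data set; call rule not given here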;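 on HepSE cholelithiasis: hepatic side effect score for cholelithiasis, drawn from the DILIps training data for predicting drug-induced liver injury; call rule not given here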;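 on HepSE cirrhosis: cirrhosis hepatic side effect score taken from the DILIps (drug-induced liver injury prediction) training set; call rule not given here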;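 on HepSE elevated liver function tests: hepatic side effect score for raised liver function tests, as recorded in the DILIps training set used for predicting drug-induced liver injury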; on HepSE hepatic failure: call rule not given here;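 on HepSE hepatomegaly: hepatic side effect score for hepatomegaly, taken from the training set of the DILIps drug-induced liver injury prediction system; call rule not given here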
[2] = test system: Hepatotoxicity; remark: listed apart in the source;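 on HepSE bilirubinemia: bilirubinemia hepatic side effect score drawn from the DILIps training data, a prediction system for drug-induced liver injury; call rule not given here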;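 on HepSE cholecystitis: Cholecystitis-related hepatic side effect score drawn from the DILIps (drug-induced liver injury prediction) training data set; call rule not given here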;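 on HepSE cholelithiasis: hepatic side effect score for cholelithiasis, drawn from the DILIps training data for predicting drug-induced liver injury; call rule not given here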;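 on HepSE cirrhosis: cirrhosis hepatic side effect score taken from the DILIps (drug-induced liver injury prediction) training set; call rule not given here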;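 on HepSE elevated liver function tests: hepatic side effect score for raised liver function tests, as recorded in the DILIps training set used for predicting drug-induced liver injury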; on HepSE hepatic failure: call rule not given here;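 on HepSE hepatomegaly: hepatic side effect score for hepatomegaly, taken from the training set of the DILIps drug-induced liver injury prediction system; call rule not given here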
[3] = test system: Hepatotoxicity; remark: listed apart in the source;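 on HepSE bilirubinemia: bilirubinemia hepatic side effect score drawn from the DILIps training data, a prediction system for drug-induced liver injury; call rule not given here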;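 on HepSE cholecystitis: Cholecystitis-related hepatic side effect score drawn from the DILIps (drug-induced liver injury prediction) training data set; call rule not given here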;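 on HepSE cholelithiasis: hepatic side effect score for cholelithiasis, drawn from the DILIps training data for predicting drug-induced liver injury; call rule not given here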;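 on HepSE cirrhosis: cirrhosis hepatic side effect score taken from the DILIps (drug-induced liver injury prediction) training set; call rule not given here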;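 on HepSE elevated liver function tests: hepatic side effect score for raised liver function tests, as recorded in the DILIps training set used for predicting drug-induced liver injury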; on HepSE hepatic failure: call rule not given here
[4] = test system: Hepatotoxicity; remark: listed apart in the source;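 on HepSE bilirubinemia: bilirubinemia hepatic side effect score drawn from the DILIps training data, a prediction system for drug-induced liver injury; call rule not given here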;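 on HepSE cholecystitis: Cholecystitis-related hepatic side effect score drawn from the DILIps (drug-induced liver injury prediction) training data set; call rule not given here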;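 on HepSE cholelithiasis: hepatic side effect score for cholelithiasis, drawn from the DILIps training data for predicting drug-induced liver injury; call rule not given here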;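 on HepSE cirrhosis: cirrhosis hepatic side effect score taken from the DILIps (drug-induced liver injury prediction) training set; call rule not given here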;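 on HepSE elevated liver function tests: hepatic side effect score for raised liver function tests, as recorded in the DILIps training set used for predicting drug-induced liver injury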; on HepSE hepatic failure: call rule not given here
[5] = test system: Hepatotoxicity; remark: listed apart in the source; on HepSE hepatic failure: call rule not given here
[6] = test system: Hepatotoxicity; remark: listed apart in the source; on HepSE hepatic failure: call rule not given here
[7] = test system: Hepatotoxicity; remark: listed apart in the source
[8] = test system: Hepatotoxicity; remark: listed apart in the source
[9] = test system: Hepatotoxicity; remark: listed apart in the source
[10] = test system: Hepatotoxicity; remark: listed apart in the source
[11] = test system: Hepatotoxicity; remark: listed apart in the source
[12] = test system: Hepatotoxicity; remark: listed apart in the source
[13] = test system: Hepatotoxicity; remark: listed apart in the source
[14] = test system: Hepatotoxicity; remark: listed apart in the source

SMILES | HepSE_bilirubinemia [1] | HepSE_cholecystitis [2] | HepSE_cholelithiasis [3] | HepSE_cirrhosis [4] | HepSE_elevated liver function tests [5] | HepSE_hepatic failure [6] | HepSE_hepatic necrosis [7] | HepSE_hepatitis [8] | HepSE_hepatomegaly [9] | HepSE_jaundice [10] | HepSE_liver disease [11] | HepSE_liver fatty [12] | HepSE_liver function tests abnormal [13] | HepSE_Combined Scores [14] | further results
CC(C)CC(N(C)C)C1(c2ccc(Cl)cc2)CCC1 (stereo not drawn) [SIBUTRAMINE] | 0 | 1 | 1 | 0 | 0 | 0 | 0 | 0 | 0 | 0 | 0 | 0 | 1 | 3 | 
CSCC[C@H](NC(=O)[C@H](Cc1ccc(OS(=O)(=O)O)cc1)NC(=O)[C@@H](N)CC(=O)O)C(=O)NCC(=O)N[C@@H](Cc1c[nH]c2ccccc12)C(=O)N[C@@H](CCSC)C(=O)N[C@@H](CC(=O)O)C(=O)N[C@@H](Cc1ccccc1)C(N)=O [SINCALIDE] | 0 | 0 | 0 | 0 | 0 | 0 | 0 | 0 | 0 | 0 | 0 | 0 | 0 | 0 | 
CO[C@H]1C[C@@H]2CC[C@@H](C)[C@@](O)(O2)C(=O)C(=O)N2CCCC[C@H]2C(=O)O[C@H]([C@H](C)C[C@@H]2CC[C@@H](O)[C@H](OC)C2)CC(=O)[C@H](C)/C=C(\C)[C@@H](O)[C@@H](OC)C(=O)[C@H](C)C[C@H](C)/C=C/C=C/C=C/1C [SIROLIMUS] | 1 | 0 | 0 | 0 | 0 | 0 | 1 | 0 | 0 | 0 | 0 | 0 | 1 | 3 | 
CC(=O)[O-].[Na+] [SODIUM ACETATE] |  |  |  |  |  |  |  |  |  |  |  |  |  |  | HepSE_bilirubinemia ([1]; Liver): 0; HepSE_cholecystitis ([2]; Liver): 0; HepSE_cholelithiasis ([3]; Liver): 0; HepSE_cirrhosis ([4]; Liver): 0; HepSE_elevated liver function tests ([5]; Liver): 0; HepSE_hepatic failure ([6]; Liver): 0; HepSE_hepatic necrosis ([7]; Liver): 0; HepSE_hepatitis ([8]; Liver): 0; HepSE_hepatomegaly ([9]; Liver): 0; HepSE_jaundice ([10]; Liver): 0; HepSE_liver disease ([11]; Liver): 0; HepSE_liver fatty ([12]; Liver): 0; HepSE_liver function tests abnormal ([13]; Liver): 0; HepSE_Combined Scores ([14]; Liver): 0
O=C([O-])O.[Na+] [SODIUM BICARBONATE] |  |  |  |  |  |  |  |  |  |  |  |  |  |  | HepSE_bilirubinemia ([1]; Liver): 0; HepSE_cholecystitis ([2]; Liver): 0; HepSE_cholelithiasis ([3]; Liver): 0; HepSE_cirrhosis ([4]; Liver): 0; HepSE_elevated liver function tests ([5]; Liver): 0; HepSE_hepatic failure ([6]; Liver): 0; HepSE_hepatic necrosis ([7]; Liver): 0; HepSE_hepatitis ([8]; Liver): 0; HepSE_hepatomegaly ([9]; Liver): 0; HepSE_jaundice ([10]; Liver): 0; HepSE_liver disease ([11]; Liver): 0; HepSE_liver fatty ([12]; Liver): 0; HepSE_liver function tests abnormal ([13]; Liver): 0; HepSE_Combined Scores ([14]; Liver): 0
[Cl-].[Na+] [SODIUM CHLORIDE] | 0 | 0 | 0 | 0 | 0 | 0 | 0 | 0 | 0 | 0 | 0 | 0 | 0 | 0 | 
O=C(O)CCC(=O)O.O=C(O[C@H]1CN2CCC1CC2)N1CCc2ccccc2[C@@H]1c1ccccc1 [SOLIFENACIN SUCCINATE] | 0 | 0 | 0 | 0 | 0 | 0 | 0 | 0 | 0 | 0 | 0 | 0 | 1 | 1 | 
CNC(=O)c1cc(Oc2ccc(NC(=O)Nc3ccc(Cl)c(C(F)(F)F)c3)cc2)ccn1 [SORAFENIB] | 0 | 1 | 0 | 0 | 0 | 0 | 0 | 0 | 0 | 1 | 0 | 0 | 0 | 2 | 
CC(C)NCC(O)c1ccc(NS(C)(=O)=O)cc1 (stereo not drawn) [SOTALOL] | 0 | 0 | 0 | 0 | 0 | 0 | 0 | 0 | 0 | 0 | 0 | 0 | 0 | 0 | 
CN[C@@H]1[C@H](O)[C@H](NC)[C@H]2O[C@@]3(O)C(=O)C[C@@H](C)O[C@H]3O[C@@H]2[C@H]1O [SPECTINOMYCIN] | 0 | 0 | 0 | 0 | 0 | 0 | 0 | 0 | 0 | 0 | 0 | 0 | 0 | 0 | 
CC(=O)S[C@@H]1CC2=CC(=O)CC[C@]2(C)[C@H]2CC[C@@]3(C)[C@@H](CC[C@@]34CCC(=O)O4)[C@H]12 [SPIRONOLACTONE] | 0 | 0 | 0 | 0 | 0 | 0 | 0 | 0 | 0 | 0 | 0 | 0 | 0 | 0 | 
Cc1cn([C@H]2C=C[C@@H](CO)O2)c(=O)[nH]c1=O [STAVUDINE] | 1 | 0 | 0 | 0 | 0 | 1 | 0 | 1 | 0 | 0 | 1 | 1 | 0 | 5 | 
[H]/N=C(/N)N[C@H]1[C@H](O)[C@@H](O)[C@H](O[C@@H]2O[C@@H](C)[C@](O)(C=O)[C@H]2O[C@@H]2O[C@@H](CO)[C@H](O)[C@@H](O)[C@@H]2NC)[C@@H](N/C(N)=N\[H])[C@@H]1O [STREPTOMYCIN] |  |  |  |  |  |  |  |  |  |  |  |  |  |  | HepSE_bilirubinemia ([1]; Liver): 0; HepSE_cholecystitis ([2]; Liver): 0; HepSE_cholelithiasis ([3]; Liver): 0; HepSE_cirrhosis ([4]; Liver): 0; HepSE_elevated liver function tests ([5]; Liver): 0; HepSE_hepatic failure ([6]; Liver): 0; HepSE_hepatic necrosis ([7]; Liver): 0; HepSE_hepatitis ([8]; Liver): 0; HepSE_hepatomegaly ([9]; Liver): 0; HepSE_jaundice ([10]; Liver): 0; HepSE_liver disease ([11]; Liver): 0; HepSE_liver fatty ([12]; Liver): 0; HepSE_liver function tests abnormal ([13]; Liver): 0; HepSE_Combined Scores ([14]; Liver): 0
CN(N=O)C(=O)N[C@@H](C=O)[C@@H](O)[C@H](O)[C@H](O)CO [STREPTOZOCIN] | 0 | 0 | 0 | 0 | 0 | 0 | 0 | 0 | 0 | 0 | 0 | 0 | 0 | 0 | 
Clc1ccc(CSC(Cn2ccnc2)c2ccc(Cl)cc2Cl)cc1 (stereo not drawn) [SULCONAZOLE] | 0 | 0 | 0 | 0 |  | 0 | 0 | 0 | 0 | 0 | 0 | 0 |  | 0 | HepSE_elevated liver function tests ([5]; Liver): 0; HepSE_liver function tests abnormal ([13]; Liver): 0
CC(=O)NS(=O)(=O)c1ccc(N)cc1 [SULFACETAMIDE] | 0 | 0 | 0 | 0 | 0 | 0 | 1 | 0 | 0 | 0 | 0 | 0 | 0 | 1 | 
O=C(O)c1cc(/N=N/c2ccc(S(=O)(=O)Nc3ccccn3)cc2)ccc1O [SULFASALAZINE] | 0 | 0 | 0 | 1 | 1 | 1 | 1 | 1 | 0 | 1 | 0 | 0 | 1 | 7 | 
